According to paper PMC3920478, “Small molecule-mediated refolding and activation of myosin motor function” (eLife, 2014):
“Also recorded” adds a separate entry of the source.

Tests used:
[1] = tested on: neonatal rat cardiomyocytes (NRCM); assay: Neonatal rat cardiomyocytes: cell size, MHC and ANP expression at 37°C or 42°C; format: cell-based; details: 10 µM, 24 hr
Procedure: Cell culture media, fetal bovine serum (FBS), and horse serum (HS) were purchased from Biochrome (Berlin, Germany); all other chemicals were from Sigma-Aldrich (St Louis, MO). Isolation of neonatal rat cardiomyocytes (NRCM) was performed by enzymatic digestion of neonatal rat hearts as described previously ([Hilfiker-Kleiner et al., 2004]). NRCM were cultured in plating medium containing 5% FBS and 10% HS for 24 hr followed by serum-starvation for 48 hr. NRCM were cultured in serum-free medium containing either EMD (10 µM) or the corresponding volume of the solvent DMSO (1 µl/ ml) for additional 24 hr at 37°C or 42°C with 5% CO2.
For indirect immunofluorescence NRCM were fixed with 95% ethanol. Monoclonal antibodies against sarcomeric α-actinin (1:50; Sigma-Aldrich) or sarcomeric Myosin heavy chain (1:50; Santa Cruz Biotechnology, Dallas, TX) were used. Fluor-488 goat anti-mouse IgG (1:250; Jackson ImmunoResearch, West Grove, PA) or Alexa Fluor 639 goat anti-rabbit (1:250; Jackson ImmunoResearch) was employed as secondary antibody. Immunofluorescence was detected by the use of the AxioVison Rel 4.1 package (Carl Zeiss GmbH).
Realtime measurement of PCR amplification was performed using the Stratagene MX4000 multiplex QPCR System with the SYBR green dye method (Brilliant SYBR Green Mastermix-Kit, Stratagene, La Jolla, CA) as described ([Hilfiker-Kleiner et al., 2010]; [Hoch et al., 2011]). Total RNA was extracted from NRCM using Trizol reagent according to the manufactures protocol (Invitrogen, Carlsbad, CA). Reverse transcriptase (RT)-PCR was performed of ANP and b2m using 2 μg of total RNA. The primer sequences and PCR conditions are described in Table 3. PCR products were size-fractionated by 2% agarose gel electrophoresis.
Protein expression in NRCM was determined by standard immunoblotting techniques under denaturing conditions, as described previously ([Hilfiker-Kleiner et al., 2004]). A monoclonal primary antibody against sarcomeric MHC (1:1.000; Abcam, Cambridge, UK) was used and signal detection was achieved by the usage of a horseradish peroxydase-conjugated secondary antibody (GE) and ECL-detection. PonceauS staining was carried out and used as a loading control.

Dd myosin-2 motor domain = target: T1, Dd myosin-2 motor domain (Dictyostelium discoideum, UniProt P08799); assay: Steady-state basal and actin-activated Mg2+-ATPase (NADH-coupled assay); format: biochemical
T1 sequence (P08799 1-761 limits assumed): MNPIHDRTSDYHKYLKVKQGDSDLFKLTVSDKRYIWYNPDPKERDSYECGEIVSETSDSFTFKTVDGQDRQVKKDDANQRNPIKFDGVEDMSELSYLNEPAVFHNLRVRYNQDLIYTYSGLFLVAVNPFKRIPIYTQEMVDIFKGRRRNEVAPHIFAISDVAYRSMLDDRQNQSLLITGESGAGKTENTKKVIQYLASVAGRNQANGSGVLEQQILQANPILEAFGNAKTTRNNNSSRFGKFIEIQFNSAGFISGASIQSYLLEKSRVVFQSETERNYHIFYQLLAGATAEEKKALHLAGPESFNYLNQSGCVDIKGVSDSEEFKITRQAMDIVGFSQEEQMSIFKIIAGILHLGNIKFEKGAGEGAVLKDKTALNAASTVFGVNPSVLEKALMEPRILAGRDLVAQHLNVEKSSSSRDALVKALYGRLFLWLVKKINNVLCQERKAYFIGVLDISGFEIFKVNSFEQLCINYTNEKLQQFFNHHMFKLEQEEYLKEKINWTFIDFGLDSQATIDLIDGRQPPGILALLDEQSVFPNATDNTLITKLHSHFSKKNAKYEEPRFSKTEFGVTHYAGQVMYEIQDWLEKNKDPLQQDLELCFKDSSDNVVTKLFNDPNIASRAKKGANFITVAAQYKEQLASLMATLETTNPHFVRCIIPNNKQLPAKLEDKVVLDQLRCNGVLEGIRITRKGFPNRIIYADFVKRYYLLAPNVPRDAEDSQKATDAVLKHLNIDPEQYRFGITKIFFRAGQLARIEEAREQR
Procedure: (§1) Proteolytic fragments were further purified by actin-coprecipitation.
(§2) Basal and actin-activated Mg^2+-ATPase activities were measured using the NADH-coupled assay described previously ([Furch et al., 1998]) adapted for higher throughput screens for a temperature controlled plate reader (Multiscan FC, Thermo Scientific, Waltham, MA) at 25°C. EMD 57033 was added to the reaction mixture in the absence of nucleotide and incubated before the reaction was started by the addition of ATP. Control measurements were carried out in the absence of drug, as well as in the presence of according concentrations of the non-binding (−)-enantiomer EMD 57439 to account for possible absorption effects. […] Data points are mean values from 3 to 5 independent experiments. Error bars indicate standard deviations.

[2] = target: T2, Dd myosin-5b motor domain (Dictyostelium discoideum, UniProt P54697); assay: as above; format: biochemical
T2 construct: Dd myosin-5b motor domain; His tag; made in house; host or cells: Dictyostelium discoideum AX3-ORF+ cells
T2 sequence (P54697 1-821 limits assumed): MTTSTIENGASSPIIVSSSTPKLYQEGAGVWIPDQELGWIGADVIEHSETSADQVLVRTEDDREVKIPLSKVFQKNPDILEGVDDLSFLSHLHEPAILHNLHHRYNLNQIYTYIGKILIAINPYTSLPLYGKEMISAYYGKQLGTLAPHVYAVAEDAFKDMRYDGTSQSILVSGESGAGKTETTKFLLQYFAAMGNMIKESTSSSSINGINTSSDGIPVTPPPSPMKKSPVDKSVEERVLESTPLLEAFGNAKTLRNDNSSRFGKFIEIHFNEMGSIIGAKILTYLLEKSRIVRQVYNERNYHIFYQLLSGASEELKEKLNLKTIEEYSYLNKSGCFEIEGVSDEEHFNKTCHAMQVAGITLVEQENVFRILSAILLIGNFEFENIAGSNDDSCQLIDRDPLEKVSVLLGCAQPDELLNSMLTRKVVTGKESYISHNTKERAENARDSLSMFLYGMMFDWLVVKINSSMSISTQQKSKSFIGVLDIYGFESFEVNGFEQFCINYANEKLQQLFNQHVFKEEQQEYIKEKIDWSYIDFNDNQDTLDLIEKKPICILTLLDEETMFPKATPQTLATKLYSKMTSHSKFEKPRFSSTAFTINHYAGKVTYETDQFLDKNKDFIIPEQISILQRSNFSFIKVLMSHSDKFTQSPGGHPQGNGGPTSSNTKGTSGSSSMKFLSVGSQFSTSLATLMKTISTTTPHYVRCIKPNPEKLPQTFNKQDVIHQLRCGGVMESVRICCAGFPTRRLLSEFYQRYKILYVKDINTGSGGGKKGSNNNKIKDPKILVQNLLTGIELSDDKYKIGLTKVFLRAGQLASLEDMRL
Procedure: as §1, §2

**Q.** `COc1ccc(C(=O)N2CCCc3cc(C4=NNC(=O)SC4C)ccc32)cc1OC` (centres unmarked) [EMD 57033] was tested. Which “ANP mRNA expression” value ([1]; 37°C) did it give?
**A.** not significantly changed; also recorded: does not affect expression of ANP mRNA

**Q.** What about the “Total cardiac MHC protein content” value ([1]; 37°C or 42°C) of the same compound?
**A.** without significant changes in total cardiac MHC protein content; also recorded: does not significantly alter MHC protein levels

**Q.** And the “β-cardiac MHC mRNA expression” value ([1]; 37°C, vs DMSO)?
**A.** reduction in β-cardiac MHC transcripts; also recorded: significantly reduces

**Q.** What about the “ANP mRNA expression induced by hyperthermic stress” value ([1]; 42°C) of the same compound?
**A.** completely suppressed; also recorded: fully suppressed

**Q.** What about the “β-cardiac MHC mRNA downregulation” value ([1]; 42°C) of the same compound?
**A.** significantly more pronounced

**Q.** What about the “α-cardiac MHC mRNA expression” value ([1]; vs DMSO) of the same compound?
**A.** without significant changes; also recorded: does not alter α-cardiac MHC mRNA expression

**Q.** What about the AC50 (Dd myosin-2 motor domain) of the same compound?
**A.** 25.8 µM

**Q.** What about the “Normalized maximal ATPase activation (basal)” value (Dd myosin-2 motor domain) of the same compound?
**A.** 1.4

**Q.** What about the “Normalized maximal ATPase activation (with 30 µM actin)” value (Dd myosin-2 motor domain; 30 µM actin) of the same compound?
**A.** 2.8

**Q.** What about the “Basal ATP turnover relative to that expected for 100% active protein” value (Dd myosin-2 motor domain; saturating EMD 57033) of the same compound?
**A.** 1.4 fold

**Q.** What about the AC50 [2] of the same compound?
**A.** 35.4 µM

**Q.** What about the “Activation potency relative to β-cardiac myosin (weaker)” value [2] of the same compound?
**A.** fivefold

**Q.** And the “Normalized maximal ATPase activation (basal)” value [2]?
**A.** 1.4

**Q.** What about the “Normalized maximal ATPase activation (with 30 µM actin)” value ([2]; 30 µM actin) of the same compound?
**A.** 1.6
